What was measured:
Assay type in all cases: physicochemical
[1] = Extraction capability from aqueous 3 mol/L nitric acid; conditions: aqueous [HNO3] 3 mol/L spiked with 152Eu(III) and 241Am(III)
Method: The organic solutions of the extractant compounds to be tested were prepared dissolving an amount of the extractant compound in the solvent considered in each case to reach the ligand concentration of 0.1 mol/L. The solvents considered were 1-octanol, n-heptane, n-dodecane, the industrial solvent "TPH" (hydrogenated tetrapropylene) used in the "La Hague" reprocessing plant of the COGEMA company (Compagnie générale des matières nucléaires) and different mixtures "TPH/1-octanol or n-dodecane/1-octanol".
Once said solution was obtained, its equilibration was carried out. To that end, 800 µL of the organic solution of the compound to be studied were contacted with 800 µL of nitric acid of 3 mol/L concentration and it was stirred vigorously in an oscillating shaker for 5 minutes. The phases were separated by centrifugation at 5000 rpm. 800 µL of the said organic phase were again contacted with 800 µL of nitric acid of 3 mol/L concentration for another 5 minutes of vigorous shaking. The phases were separated by centrifugation, the organic phase being considered to be equilibrated.
(§1) 600 µL of the organic phase of the compound to be studied, previously equilibrated, were contacted with 600 µL of aqueous phase consisting of a 3 mol/L nitric acid solution spiked with 600 Bq of ^152Eu and 600 Bq of ^241Am. It was stirred vigorously by means of an oscillating shaker for 30 minutes and the phases were separated by centrifugation at 5000 rpm. 400 µL were taken from each of the phases for determining the concentration of the radionuclides ^152Eu and ^241Am. This determination was carried out by means of the high energy gamma spectrometry technique with a high-purity Ge detector (Canberra Inc.), using the 122 keV line for the determination of ^152Eu concentration and the 59.5 keV line for the determination of ^241Am concentration. The distribution coefficient was calculated by relating the concentration of each of the radionuclides in the organic phase and in the aqueous phase, according to the expression: DM = ([M]org)/([M]aq) [formula]
(§2) The distribution coefficients and the selectivity factor of each of them were determined as indicated in sections A) to C).

[2] = Eu/Am selectivity factor in extraction from 3 mol/L nitric acid; conditions: aqueous [HNO3] 3 mol/L
Method: as §1
The Eu/Am selectivity factor was calculated by relating the corresponding distribution coefficients of Eu with those of Am in the same experimental conditions: SFEu/Am = DEu /DAm [formula]
as §2

[3] = Third phase formation in extraction from simulated HLLW; conditions: HLLW without oxalic acid and without HEDTA; TODGA 0.2 mol/L
Method: […] Extraction experiments were carried out with said simulated HLLW in a pure form and also adding oxalic acid and HEDTA to it. These complexing agents have shown to be effective in the DIAMEX process for the complexing of Mo, Zr (H2C2O4) and Pd (HEDTA).
The actinides Am (III), Cm (III) and Cf (III) as well as trivalent lanthanides were extracted with high distribution coefficients from HLLW with a 3.2 mol/L nitric acid concentration. […] As expected, Zr and Pd are not co-extracted when complexing agents are added to HLLW.

[4] = Radiolytic stability, extraction capability after irradiation; conditions: after 1000 kGy; irradiated dissolved in n-dodecane/1-octanol (95:5)%vol, equilibrated with 3 mol/L nitric acid
Method: The tests of stability against irradiation were carried out in the NAYADE facility at CIEMAT site, with external ^60Co sources with an approximate activity of 5000 Ci, with a homogeneous irradiation flux. The dose rate applied in all the experiments was 4 kGy/h and integrated doses of 250 kGy, 500 kGy, 750 kGy and 1000 kGy were considered. The irradiation device consists of a metal cylinder which is introduced in a rack wherein the ^60CO sources are placed radially, such that the irradiation is homogeneous. The irradiation process is carried out submersing the device in a pool of water with a depth of 4 meters.
Irradiation tests of the solid compound (in the absence of solvent) and of the compound dissolved in the "n-dodecane/1-octanol (95:5)%vol" mixture, equilibrated with 3 mol/L nitric acid, were carried out. The organic solutions were prepared and equilibrated as detailed in the previous sections A) and B).
Once each programmed integrated dose was reached, the extraction capability of the organic samples was evaluated as detailed in section C).
The irradiation of compound 4 in solid form (in the absence of solvent) and dissolved at a 0.1 mol/L concentration in the "n-dodecane/1-octanol 1 (95:5)%vol" mixture, equilibrated with 3 mol/L nitric acid, was carried out. The applied dose rate was 4 kGy/h and the considered integrated doses were 250 kGy, 500 kGy, 750 kGy and 1000 kGy. After each integrated dose, the extraction capability of Am(III) and Eu(III) was evaluated as described in section C.
The considered integrated doses in this experiment were 500 kGy and 1000 kGy at a dose rate of 4 kGy/h.

[5] = 0.1 mol/L in TPH/1-octanol (50:50)%vol

Work on “2-Dioctylcarbamoylmethoxy-N-[6-(2-dioctylcarbamoyl-methoxyacetylamino)hexyl]acetamide [Compound 15]” yielded a DAm ([1]; 0.1 mol/L in 1-octanol) of 25, a DEu ([1]; 0.1 mol/L in 1-octanol) of 98 and an SFEu/Am ([2]; 0.1 mol/L in 1-octanol) of 3.9.
“2-Dibutylcarbamoylmethoxy-N-[6-(2-dibutylcarbamoyl-methoxyacetylamino)hexyl]acetamide [Compound 14]” gave a DAm [1, 5] of 119, a DEu [1, 5] of 215 and an SFEu/Am [2, 5] of 1.8.
Compound CC(C)CCN(CCC(C)C)C(=O)COCC(=O)NCc1cccc(CNC(=O)COCC(=O)N(CCC(C)C)CCC(C)C)c1 [Compound 6, 2-[[Bis(3-methylbutyl)carbamoyl]methoxy]-N-[3-[(2-[[bis-(3-methylbutyl)carbamoyl]methoxy]acetylamino)methyl]-benzyl]-acetamide] has a DAm [1, 5] of 82, a DEu [1, 5] of 251 and an SFEu/Am [2, 5] of 3.1.
With CCCCN(CCCC)C(=O)COCC(=O)N(CCCC)CCCC [TBDGA, N,N,N',N'-tetrabutyl-3-oxapentane-diamide, reference compound] the DAm [1, 5] was 476, the DEu [1, 5] was 680 and the SFEu/Am [2, 5] was 1.4.
In the case of CCCCCCCCN(CCCCCCCC)C(=O)COCC(=O)NCc1ccc(CNC(=O)COCC(=O)N(CCCCCCCC)CCCCCCCC)cc1 [Compound 8], the DAm [1, 5] is reported as 67, the DEu [1, 5] is reported as 276 and the SFEu/Am [2, 5] is reported as 4.1.
CCCCCCCCCCCCOc1cc(CNC(=O)COCC(=O)N(CCCC)CCCC)cc(CNC(=O)COCC(=O)N(CCCC)CCCC)c1 [Compound 11, 2-Di-butylcarbamoylmethoxy-N-[3-[(2-dibutyl-carbamoyl-methoxyacetylamino)methyl]-5-dodecyloxybenzyl]acetamide] gave a DAm [1, 5] of 88, a DEu [1, 5] of 335 and an SFEu/Am [2, 5] of 3.8.
With “2-Dibutylcarbamoylmethoxy-N-[3-[(2-dibutylcarbamoyl-methoxy-acetylamino)methyl]benzyl]acetamide [Compound 3]” the DAm [1, 5] was 99, the DEu [1, 5] was 183 and the SFEu/Am [2, 5] was 1.9.
For CCCCN(CCCC)C(=O)COCC(=O)NCCCNC(=O)c1cc(C(C)(C)C)cc2c1Oc1c(C(=O)NCCCNC(=O)COCC(=O)N(CCCC)CCCC)cc(C(C)(C)C)cc1C2(C)C [Compound 19, 2,7-di-tert-butyl-9,9-dimethyl-9H-xanthen-4,5-dicarboxylic acid bis-[[3-(2-dibutylcarbamoylmethoxy-acetylamino)propyl]amide]], the DAm [1, 5] was 65, the DEu [1, 5] was 318 and the SFEu/Am [2, 5] was 4.9.
Compound CCCCCC(C)Oc1cc(CNC(=O)COCC(=O)N(CCCC)CCCC)cc(CNC(=O)COCC(=O)N(CCCC)CCCC)c1 (stereo not drawn) [Compound 10, 2-Di-butylcarbamoylmethoxy-N-[3-[(2-dibutyl-carbamoyl-methoxyacetylamino)methyl]-5-(1-methylhexyloxy)benzyl]-acetamide] has a DAm [1, 5] of 41, a DEu [1, 5] of 276 and an SFEu/Am [2, 5] of 6.7.
With CCCCCCCCN(CCCCCCCC)C(=O)COCC(=O)N(CCCCCCCC)CCCCCCCC [TODGA, N,N,N',N'-tetraoctyl diglycolamide, reference compound] the third phase [3] was “a third phase was observed”, the DAm [4] was 121 and the DEu [4] was 458.
CCCCCCCCN(C)C(=O)COCC(=O)NCc1cccc(CNC(=O)COCC(=O)N(C)CCCCCCCC)c1 [Compound 5, 2-[(Methyloctylcarbamoyl)methoxy]-N-[3-[(2-[(methyl-octyl-carbamoyl)methoxy]acetylamino]methyl]benzyl]-acetamide] gave a DAm [1, 5] of 83, a DEu [1, 5] of 309 and an SFEu/Am [2, 5] of 3.7.
With CCCCCCCCN(CCCCCCCC)C(=O)COCC(=O)N(C)C [DMDODGA, N,N-dimethyl-N',N'-dioctyl-oxapentane-diamide, reference compound] the DAm [1, 5] was 477, the DEu [1, 5] was 789 and the SFEu/Am [2, 5] was 1.7.
